Biological target: T1, Der p1 (Dermatophagoides pteronyssinus, UniProt P08176)
T1 construct: Allergen stock solutions were derived from the extraction of the rearing medium of dust mites Dermatophagoides pteronyssinus; from tissue; host or cells: rearing medium of dust mites Dermatophagoides pteronyssinus (crude extract)
T1 sequence (P08176 99-320): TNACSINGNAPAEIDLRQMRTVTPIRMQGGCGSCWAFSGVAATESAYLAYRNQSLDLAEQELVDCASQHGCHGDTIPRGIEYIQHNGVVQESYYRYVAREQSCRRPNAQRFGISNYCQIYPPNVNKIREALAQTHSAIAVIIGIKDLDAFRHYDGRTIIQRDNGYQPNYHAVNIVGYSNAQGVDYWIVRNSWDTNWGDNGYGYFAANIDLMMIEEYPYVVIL
Test: Allergen denaturing efficacy on Der p1-treated tissue, ELISA
Assay type: biochemical
Details: for Efficacy (%) on Der p1: tissue treated at 100 ml/m^2
Procedure: Allergen stock solutions were derived from the extraction of the rearing medium of dust mites Dermatophagoides pteronyssinus or by the extraction of cat exposed tissues. Allergens were always stored or diluted in Phosphate Buffered Saline (PBS) of pH 7.4 containing NaCl 8 g/L, KH2PO4 0.2 g/L, Na2HPO4 1.15 g/L, KCl 0.2 g/L, Tween 20 0.5 ml/L.
A tissue (Triconet: 40% PP, 60% Viscose, 0.7 mm thickness, 70 g/m^2) was treated with known amount of antigen, allowed to dry overnight and then treated with the allergen denaturing composition at 100 ml/m^2. The next day, the tissue was extracted in 5 ml of PBS and the concentration of allergen was determined by ELISA. ELISA tests were carried out according to the instructions of the commercially available test kits with monoclonal antibodies (www.inbio.com).
Briefly, anti-Der p1 or anti-Fel d1 monoclonal antibodies are diluted 1/1000 in 50 mM carbonate-bicarbonate buffer, pH 9.6. and 100 μl is coated on a polystyrene microtiter well and allowed to incubate overnight at 4° C. Then, wells are washed 3 times with PBS containing 0.05% Tween 20, pH 7.4. (further called: wash step with PBS-T). After incubation with 100 μl 1% BSA in PBS-T for 30 minutes at room temperature, another wash step is executed. Then, 100 μl of diluted allergen standard or test samples is added to each well and incubated for 1 hour at room temperature. After a wash step, 100 μl per well of 1/1000 diluted biotinylated anti-Der p1 or anti-Fel d1 monoclonal antibody is added and incubated for 1 hour at room temperature. Then, another wash step is executed and 100 μl/well of a Streptavidin-Peroxidase (Sigma S5512, reconstituted in 1 ml distilled water) is added as a 1/1000 dilution in PBS-T and incubated for 30 minutes at room temperature. After a final wash step, 100 μl/well of 1 mM ABTS (2,2′-azino-bis(3-ethylbenzthiazoline-6-sulfonic acid)diammonium salt) in 70 mM citrate phosphate buffer, pH 4.2, containing 0.03% H2O2, is added. The assay was allowed to develop after dark green colouring of the highest concentration of the allergen standard. Optical density was read at 405 nm.
Standard allergen dilution curves were taken for calibration. The range in which allergens can be quantified is 0.2-20 ppb for Fel d1 and from 1-100 ppb for Der p1. Dilutions were made until the concentration was in the right order of magnitude to enable quantification and percent reduction by the allergen denaturing composition.
Possible synergy was investigated using Limpet's formula (Richter, D. L., Pestic. Sci. 1987, 19: 309-315): […]
where Ec is the expected additive response, or calculated activity, X is the observed percentage control when component A is applied alone and Y is the observed percentage control when component B is applied alone. Synergy was considered to occur when the observed effect, or measured activity, of a combination of both components was greater than the corresponding Ec value.

Row | Compound | Efficacy (%) on Der p1 (La^3+ 0.01% alone) [%] | Efficacy (%) on Der p1 (La^3+ 0.05% alone) [%] | Efficacy (%) on Der p1 (La^3+ 0.2% alone) [%] | Efficacy (%) on Der p1 (La^3+ 1.0% alone) [%] | Efficacy (%) on Der p1 (Ca^2+ 0.05% alone) [%] | Efficacy (%) on Der p1 (Ca^2+ 0.125% alone) [%] | Efficacy (%) on Der p1 (Ca^2+ 0.5% alone) [%] | Efficacy (%) Expected value (Ec) (Ca^2+ 1%, La^3+ 0%) [%] | Efficacy (%) Measured value (Ca^2+ 1%, La^3+ 0%) [%] | Efficacy (%) Synergy (measured minus expected) (Ca^2+ 1%, La^3+ 0%) [%] | Efficacy (%) on Der p1 (Ca^2+ 2.0% alone) [%]
1 | [La+3] [La^3+] | 12 | 0 | 0 | 100 |  |  |  |  |  |  | 
2 | [Ca+2] [Ca^2+] |  |  |  |  | 0 | 0 | 28 | 46 | 46 | 0 | 96
